Source: patent publication US4749703A, “Calcium antagonist piperazine derivatives, and compositions therefor” (Dainippon Pharmaceutical Co., Ltd., priority 1984, dated 1988)

Assays:
[1] = tested on: spontaneously hypertensive rats (SHR); experiment: Antihypertensive activity in spontaneously hypertensive rats (SHR); type: in vivo, male SHR (Okamoto and Aoki strain) rats; conditions: 30 mg/kg
Procedure: The animals used were male SHR [Okamoto and Aoki strain; cf. Jap. Circul. […] Proc. Soc. […] The other end of the cannula was exposed through the skin on the back of the neck and fixed. After 1 to 4 days, the aortic cannula was connected to a pressure transducer (produced by Nihon Koden Co., Ltd., Japan; Model MP-4T), and conscious blood pressure was measured by direct method. On the day of the experiment, the blood pressure was measured for one hour prior to dosing. The test compound, suspended in 0.5% aqueous tragacanth solution, was administered orally at a volume of 3.0 ml/kg and the blood pressure was measured continuously for 5 hours.
The changes of blood pressure are expressed by the mean pressure calculated from the values of systolic and diastolic pressure.

[2] = tested on: vasopressin-induced ST depression; experiment: Preventive effect on vasopressin-induced ST depression (experimental model of angina pectoris); type: in vivo, Male Donryu strain rats; set-up: key to Preventive effect on ST depression, 7 hours / Preventive effect on ST depression, 1 hour / Preventive effect on ST depression, 5 hours / Preventive effect on ST depression, 3 hours: +: Significantly different from vehicle control (P < 0.05); -: No significant difference; conditions: for Preventive effect on ST depression, 1 hour: 1 hour following administration; for Preventive effect on ST depression, 7 hours: 7 hours following administration
Procedure: (1) Preventive effect on vasopressin-induced ST depression (effect in experimental model of angina pectoris)
The test was carried out according to the method of Hatano et al. [cf. Pharmacometrics, 19, 311-317 (1980)].
Male Donryu strain rats, weighing 130-180 g, were anesthetized with 60 mg/kg (i.p.) of sodium pentobarbital. Lead II electrocardiogram was recorded. The ST depression produced with 0.2 IU/kg (i.v.) of vasopressin was recorded at intervals of a given period for 5 minutes after the administration of vasopressin. The test compound, suspended in 0.5% aqueous tragacanth solution, was administered orally 1, 3, 5 and 7 hours before the administration of vasopressin. The amplitude of ST depression was measured by means of the computer, and the data were analyzed statistically by two-dimensional analysis between the control group and the treated group to evaluate the effect of the test compound. Each group of 5 rats was used for each dose of the test compound.

[3] = tested on: methacholine-induced ST elevation; experiment: Preventive effect on methacholine-induced ST elevation (experimental model of variant angina); type: in vivo, Male SD strain rats; conditions: i.v.; for ST elevation, administn. of M (8 μg) after administn. of test compd. (at peak time): ± S.E.
Procedure: (2) Preventive effect on methacholine-induced ST elevation (effect in experimental model of variant angina)
The test was carried out according to the method of Sakai et al. [cf. J. Pharmacol. Methods, 5, 325-336 (1981)].
Male SD strain rats, weighing about 500 g, were anesthetized with 60 mg/kg (i.p.) of sodium pentobarbital. Lead II electrocardiogram was recorded. The ST elevation was produced with 8.0 μg of metacholine given into the coronary […] through the cannula inserted from the right carotid artery. The test compound, dissolved in 5% ethanol-physiological saline solution, was administered intravenously. The amplitude of ST elevation was measured by means of the computer 0.5, 5 and 10 minutes after the administration of the test compound and afterward at intervals of 10-minute. The effect of the test compound was evaluated by comparing the amplitude of ST elevation after administration of the test compound with that before the administration. Each group of 5 rats was used for each dose of the test compound.
The abbreviation M in the table represents metacholine.

[4] = in vivo; conditions: mouse, mortality for 7 days
Source text: STD-ddY strain mice were used in groups of 10 animals each.

O=C(CCCN1CCN(c2ccc(F)cc2)CC1)NC1c2ccccc2CSc2ccccc21 (stereo not shown) [Example 1(3), 11-[4-[4-(4-fluorophenyl)-1-piperazinyl]butyrylamino]-6,11-dihydrodibenzo[b,e]thiepin]
Peak time (time of maximum hypotensive effect) ([1]; p.o.): 5 h
maximum hypotensive effect (decrease compared with the initial blood pressure) ([1]; oral): 12-14%
time of maximum hypotensive effect ([1]; oral): 4 to 5 h
Preventive effect on ST depression, 1 hour ([2]; 3 mg/kg p.o.): +
Preventive effect on ST depression, 3 hours ([2]; 3 mg/kg p.o., 3 hours following administration): -
Preventive effect on ST depression, 1 hour ([2]; 10 mg/kg p.o.): +
Preventive effect on ST depression, 5 hours ([2]; 10 mg/kg p.o., 5 hours following administration): +
Preventive effect on ST depression, 7 hours ([2]; 10 mg/kg p.o.): -
Preventive effect on ST depression, 7 hours ([2]; 30 mg/kg p.o.): +
preventive effect on the ST depression (in words) ([2]; p.o., compared with diltiazem hydrochloride): more prolonged preventive effect on the ST depression than diltiazem hydrochloride
peak time (preventive effect on ST elevation) ([3]; 0.1 mg/kg): 0.5 min
ST elevation, administn. of M (8 μg) after administn. of test compd. (at peak time) ([3]; 0.1 mg/kg, * P < 0.05): +0.14 ± 0.02 ΔmV
peak time (preventive effect on ST elevation) ([3]; 0.3 mg/kg): 5 min
ST elevation, administn. of M (8 μg) after administn. of test compd. (at peak time) ([3]; 0.3 mg/kg, * P < 0.05, ** P < 0.01): +0.09 ± 0.02 ΔmV
peak time (preventive effect on ST elevation) ([3]; 1.0 mg/kg): 0.5 min
ST elevation, administn. of M (8 μg) after administn. of test compd. (at peak time) ([3]; 1.0 mg/kg, ** P < 0.01): +0.09 ± 0.01 ΔmV
preventive effect on the ST elevation (in words) ([3]; compared with diltiazem hydrochloride): preventive effect on the ST elevation comparable to that of diltiazem hydrochloride
LD50 at 168 h ([4]; ip, single intraperitoneal administration): > 1000 mg/kg
LD50 at 168 h ([4]; single oral administration): > 4000 mg/kg
